Laboratory results from patent US8680282B2, “Cyclic inhibitors of carnitine palmitoyltransferase and treating cancer” (University Health Network, priority 2007, dated 2014).

What was measured:
Assay in all cases: Cancer cell growth inhibition, SRB assay
[1] = test system: A172; format: cell-based, human; details: Homo sapiens, A 172, 144 h; A172 (Brain); SRB at Day 6; triplicate
Experimental: (§1) Human cancer cells (MCF-7, H358, H460, HCT116 p53^+/+, HCT116 p53^−/−, A172, PC-3, DU-145 and SW626) were maintained in DMEM medium containing 10% Fetal Bovine Serum (FBS) (Invitrogen, Burlington, ON, Canada) and normal cells HMEC, 184A1, NHBE and PrEC were cultured in MEGM, MEGM plus transferring and cholera toxin, BEGM and PrEGM supplemented with various growth factors (Cambrex, Charles city, Iowa, USA), respectively.
(§2) Compounds of Examples S1 to S30, and 4-(carboxymethyl)-4-(6-(3-hexyloxy)phenoxy)hexanoamido)-1,1-dimethylpiperidinium 2,2,2-trifluoroactate (“Compound A”) were tested in this example. Each of the tested compounds was dissolved in DMSO and further diluted in cell culture medium for the experiments performed. Cells were seeded into 96-well plates with 1,500-5,000 cells/well according to cell growth rate. After 24 h, DMEM medium containing 10% FBS were changed to DMEM containing 3% FBS for cancer cells. The compound was added into the cell culture at the indicated concentrations, and the final concentration of DMSO was adjusted to a final concentration of 0.1%. Cell viability was assessed by Sulforhodamine B (SRB) assay at Day 6.
(§3) Sulforhodamine B (SRB) (Sigma, Oakville, ON, Canada) is a water-soluble dye that binds to the basic amino acids of the cellular proteins. Thus, colorimetric measurement of the bound dye provides an estimate of the total protein mass that is related to the cell number. The cells were fixed in situ by gently aspirating off the culture media and adding 50 ul of cold 10% Tri-chloroacetic Acid (TCA) per well and incubated at 4° C. for 30-60 min. The plates were washed five times with water and allowed to air dry for 5 min. 50 ul of 0.4% (w/v) SRB dissolved in 1% (v/v) acetic acid were added into each well, plates were then incubated at RT for 30 min for staining, washed four times with 1% acetic acid to remove any unbound dye and then allowed to air dry for 5 min. Stain was solubilized with 100 ul of 10 mM Tris pH 10.5 per well. Absorbance was read at 570 nm on a spectrophotometer. GI50 (compound concentration required for 50% of growth inhibition) was calculated using GraphPad Prism 4.0 software (GraphPad Software, Inc., San Diego, Calif., USA). Growth inhibition (%) was determined as percentage of cells remaining compared to the DMSO-treated cells as control.

[2] = test system: PC-3; format: cell-based, human; details: Homo sapiens, 144 h; PC-3 (Prostate); SRB at Day 6; triplicate
Experimental: as §1, §2, §3

[3] = test system: TOV-21G; format: cell-based; details: Homo sapiens, TOV21G, 144 h; SRB at Day 6; triplicate

## CCCCCc1ccc(S(=O)(=O)NC2(CC(=O)O)CC[N+](C)(C)CC2)cc1 [Example S4, 4-(Carboxymethyl)-1,1-dimethyl-4-(4-pentylphenylsulfonamido)piperidinium 2,2,2-trifluoroacetate]
[1]
  GI50: > 50 µM
[2]
  GI50: > 50 µM
[3]
  GI50: 44 µM
